These results are taken from ChEMBL document CHEMBL1201862, “PubChem BioAssay data set” (2004).

Active and inactive are the calls of the source.

In assay [1] the target is Melanin-concentrating hormone receptor 1 (Homo sapiens, UniProt Q99705). Put plainly: Late-stage fluorescence-based counterscreen for antagonists of the G-protein coupled receptor 7 (GPR7): cell-based dose response assay to identify antagonists of the melanin-concentrating hormone receptor 1 (MCHR1) Set 5. It is filed as functional. On the technique in general: A counterscreen serves to expose hits that act by an unwanted route or on another target.
Sequence of Melanin-concentrating hormone receptor 1 (Q99705 whole entry): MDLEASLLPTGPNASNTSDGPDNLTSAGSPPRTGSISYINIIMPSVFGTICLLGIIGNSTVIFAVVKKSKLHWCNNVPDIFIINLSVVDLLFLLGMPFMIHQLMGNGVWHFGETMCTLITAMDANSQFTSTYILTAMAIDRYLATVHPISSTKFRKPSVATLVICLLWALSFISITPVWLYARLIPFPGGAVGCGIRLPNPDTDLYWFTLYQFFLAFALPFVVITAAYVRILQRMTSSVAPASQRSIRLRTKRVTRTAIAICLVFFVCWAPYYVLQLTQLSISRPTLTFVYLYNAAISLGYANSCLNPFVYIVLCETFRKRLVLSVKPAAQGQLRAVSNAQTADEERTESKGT

Another assay addresses ELAV-like protein 1 (Homo sapiens, UniProt Q15717). Put plainly: Identify HuR specific inhibitors. It is filed as functional.
The target of another assay is Nonstructural protein 1 (Influenza A virus, UniProt Q194T2). Type of assay: functional, Influenza A virus (A/California/07/2009(H1N1)).
Sequence of Nonstructural protein 1 (Q194T2 whole entry): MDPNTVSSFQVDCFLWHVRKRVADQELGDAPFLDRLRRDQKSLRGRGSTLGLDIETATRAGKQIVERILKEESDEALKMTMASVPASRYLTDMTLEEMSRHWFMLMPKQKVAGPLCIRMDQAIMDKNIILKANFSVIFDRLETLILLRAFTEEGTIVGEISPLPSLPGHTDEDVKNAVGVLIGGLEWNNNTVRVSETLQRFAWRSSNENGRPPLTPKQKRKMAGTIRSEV
The target of assay [2] is Protein disulfide-isomerase (Homo sapiens, UniProt P07237). Kind of assay: PDI inhibitors, insulin aggregation turbidity, dose response, biochemical, absorbance, cherry-picked samples (AID 602350). It is filed as functional.
Sequence of Protein disulfide-isomerase (P07237 whole entry): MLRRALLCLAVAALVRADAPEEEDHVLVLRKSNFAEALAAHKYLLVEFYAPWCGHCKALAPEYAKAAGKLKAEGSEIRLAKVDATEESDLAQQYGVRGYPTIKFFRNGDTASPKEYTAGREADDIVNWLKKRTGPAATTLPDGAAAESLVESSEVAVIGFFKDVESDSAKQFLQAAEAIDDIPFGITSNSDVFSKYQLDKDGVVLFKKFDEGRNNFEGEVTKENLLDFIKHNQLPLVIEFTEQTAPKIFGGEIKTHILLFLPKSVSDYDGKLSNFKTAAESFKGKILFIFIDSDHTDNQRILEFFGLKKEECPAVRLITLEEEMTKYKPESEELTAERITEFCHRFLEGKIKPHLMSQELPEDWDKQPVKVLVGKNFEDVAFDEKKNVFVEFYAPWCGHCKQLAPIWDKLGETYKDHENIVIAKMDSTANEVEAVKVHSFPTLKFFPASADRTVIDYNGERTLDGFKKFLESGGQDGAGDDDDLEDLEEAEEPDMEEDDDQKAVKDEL
The target of another assay is Protein S100-A4 (Homo sapiens, UniProt P26447). Kind of assay: S100A4-myosin IIA binding inhibitor potency, dose response, biochemical, fluorescence polarization, cherry-picked hits (AID 687001). Type of assay: functional. A general note: Polarisation of emitted light reports the rotation of a fluorescent probe.
Sequence of Protein S100-A4 (P26447 whole entry): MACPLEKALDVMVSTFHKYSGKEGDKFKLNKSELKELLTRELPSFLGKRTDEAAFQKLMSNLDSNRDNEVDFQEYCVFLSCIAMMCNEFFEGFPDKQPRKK
The target of assay [3] is T1, Sentrin-specific protease 7 (Homo sapiens, UniProt Q9BQF6).
T1 sequence (Q9BQF6 whole entry): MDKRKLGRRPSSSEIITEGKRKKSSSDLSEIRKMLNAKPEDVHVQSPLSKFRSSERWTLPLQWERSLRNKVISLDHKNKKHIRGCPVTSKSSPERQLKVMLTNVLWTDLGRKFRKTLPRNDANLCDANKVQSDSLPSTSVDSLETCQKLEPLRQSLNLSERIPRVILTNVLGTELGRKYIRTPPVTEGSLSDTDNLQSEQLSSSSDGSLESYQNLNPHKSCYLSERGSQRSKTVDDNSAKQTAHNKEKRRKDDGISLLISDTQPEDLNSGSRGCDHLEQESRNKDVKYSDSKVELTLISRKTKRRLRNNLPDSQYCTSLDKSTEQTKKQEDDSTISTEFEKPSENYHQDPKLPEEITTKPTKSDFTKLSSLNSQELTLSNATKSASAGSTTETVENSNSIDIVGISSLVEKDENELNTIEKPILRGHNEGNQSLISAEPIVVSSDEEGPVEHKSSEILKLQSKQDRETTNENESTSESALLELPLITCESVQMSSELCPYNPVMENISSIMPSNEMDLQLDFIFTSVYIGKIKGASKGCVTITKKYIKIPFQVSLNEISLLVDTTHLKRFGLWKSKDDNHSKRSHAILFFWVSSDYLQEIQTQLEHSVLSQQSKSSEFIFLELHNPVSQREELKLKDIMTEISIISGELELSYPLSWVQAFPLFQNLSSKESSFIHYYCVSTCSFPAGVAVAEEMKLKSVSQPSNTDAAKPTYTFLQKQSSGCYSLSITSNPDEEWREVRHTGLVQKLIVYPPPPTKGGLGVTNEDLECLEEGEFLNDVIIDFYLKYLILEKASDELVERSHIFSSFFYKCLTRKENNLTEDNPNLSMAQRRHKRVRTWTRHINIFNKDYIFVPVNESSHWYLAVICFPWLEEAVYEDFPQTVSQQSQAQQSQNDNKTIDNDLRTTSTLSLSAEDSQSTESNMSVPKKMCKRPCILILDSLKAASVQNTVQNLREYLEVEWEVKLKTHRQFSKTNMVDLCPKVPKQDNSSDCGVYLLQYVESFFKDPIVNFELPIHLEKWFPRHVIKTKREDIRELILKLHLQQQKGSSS
Put plainly: SENP7 protease inhibitors, SAR follow-up, biochemical, luminescence, set 2 (AID 588600). It is filed as functional.

For assay [4], the target named is T2, Sentrin-specific protease 6 (Homo sapiens, UniProt Q9GZR1).
T2 sequence (Q9GZR1 whole entry): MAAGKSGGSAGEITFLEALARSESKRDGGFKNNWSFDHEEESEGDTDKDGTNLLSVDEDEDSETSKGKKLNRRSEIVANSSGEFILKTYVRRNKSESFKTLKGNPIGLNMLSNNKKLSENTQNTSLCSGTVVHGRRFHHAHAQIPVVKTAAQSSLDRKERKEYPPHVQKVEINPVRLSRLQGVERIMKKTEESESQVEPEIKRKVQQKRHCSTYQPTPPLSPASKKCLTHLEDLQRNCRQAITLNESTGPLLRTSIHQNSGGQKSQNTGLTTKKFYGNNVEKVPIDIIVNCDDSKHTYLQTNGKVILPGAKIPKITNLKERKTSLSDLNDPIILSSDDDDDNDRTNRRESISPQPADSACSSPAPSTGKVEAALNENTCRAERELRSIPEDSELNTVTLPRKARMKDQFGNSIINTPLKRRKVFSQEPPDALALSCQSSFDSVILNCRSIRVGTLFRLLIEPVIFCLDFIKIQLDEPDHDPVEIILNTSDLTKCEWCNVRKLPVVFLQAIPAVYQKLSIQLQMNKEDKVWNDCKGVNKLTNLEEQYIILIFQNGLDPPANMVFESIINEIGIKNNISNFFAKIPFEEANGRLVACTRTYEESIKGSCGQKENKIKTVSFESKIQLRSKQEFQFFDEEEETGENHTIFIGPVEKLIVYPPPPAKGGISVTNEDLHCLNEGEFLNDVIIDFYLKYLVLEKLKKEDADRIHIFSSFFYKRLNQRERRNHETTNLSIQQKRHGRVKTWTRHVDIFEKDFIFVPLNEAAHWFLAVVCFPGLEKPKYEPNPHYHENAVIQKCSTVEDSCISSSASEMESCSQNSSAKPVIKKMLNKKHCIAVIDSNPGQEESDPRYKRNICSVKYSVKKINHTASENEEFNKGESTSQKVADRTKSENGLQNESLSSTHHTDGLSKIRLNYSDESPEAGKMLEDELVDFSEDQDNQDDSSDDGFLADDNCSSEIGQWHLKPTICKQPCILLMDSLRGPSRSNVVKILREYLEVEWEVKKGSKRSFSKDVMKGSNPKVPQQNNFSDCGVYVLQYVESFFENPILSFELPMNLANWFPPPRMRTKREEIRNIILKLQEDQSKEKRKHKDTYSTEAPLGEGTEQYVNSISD
Kind of assay: SENP6 protease inhibitors, SAR follow-up, biochemical, luminescence, set 2 (AID 588598). It is filed as functional.

The target in assay [5] is T3, Sentrin-specific protease 8 (Homo sapiens, UniProt Q96LD8).
T3 sequence (Q96LD8 whole entry): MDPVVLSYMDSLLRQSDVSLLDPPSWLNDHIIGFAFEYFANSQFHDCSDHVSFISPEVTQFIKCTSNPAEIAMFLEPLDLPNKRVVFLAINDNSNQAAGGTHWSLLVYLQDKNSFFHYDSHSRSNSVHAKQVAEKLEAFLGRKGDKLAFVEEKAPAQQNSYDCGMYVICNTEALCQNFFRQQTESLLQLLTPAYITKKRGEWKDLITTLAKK
Kind of assay: SENP8 protease inhibitors, SAR follow-up, biochemical, luminescence, set 2 (AID 588601). It is filed as functional.

A further assay has as its target T4, Caspase-3 (Homo sapiens, UniProt P42574).
T4 sequence (P42574 whole entry): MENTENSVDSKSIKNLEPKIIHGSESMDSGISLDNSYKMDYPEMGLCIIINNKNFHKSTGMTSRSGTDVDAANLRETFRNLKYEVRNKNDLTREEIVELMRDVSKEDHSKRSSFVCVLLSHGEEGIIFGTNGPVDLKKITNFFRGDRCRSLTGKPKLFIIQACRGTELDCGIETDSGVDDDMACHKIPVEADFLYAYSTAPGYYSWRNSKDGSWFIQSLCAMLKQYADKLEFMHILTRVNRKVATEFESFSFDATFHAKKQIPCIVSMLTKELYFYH
Put plainly: caspase-3 inhibitors as off-family protease, SAR follow-up, selectivity assay for SENP protease inhibitor project, biochemical, luminescence, set 2 (AID 588599). It is filed as functional.

In assay [6] the test system is H4. Put plainly: Inhibitors of Prion Protein 5' UTR mRNA Measured in Cell-Based System Using Plate Reader - 2078-01_Inhibitor_Dose_DryPowder_Activity. [Related pubchem assays (depositor defined):AID488894]. To be noted: Homo sapiens. It is filed as functional.
Assay [7] deals with H4. Kind of assay: Amyloid Precursor 5' UTR neuroblastoma cell reporter line Measured in Cell-Based System Using Plate Reader - 2078-04_Inhibitor_Dose_DryPowder_Activity. [Related pubchem assays (depositor defined):AID488894]. The settings on record: Homo sapiens. It is filed as functional.
In assay [8] the target is T5, Luciferin 4-monooxygenase (Photinus pyralis, UniProt P08659). Kind of assay: firefly luciferase enzyme inhibitors, dose response, biochemical, luminescence (AID 1891).
T5 sequence (P08659 whole entry): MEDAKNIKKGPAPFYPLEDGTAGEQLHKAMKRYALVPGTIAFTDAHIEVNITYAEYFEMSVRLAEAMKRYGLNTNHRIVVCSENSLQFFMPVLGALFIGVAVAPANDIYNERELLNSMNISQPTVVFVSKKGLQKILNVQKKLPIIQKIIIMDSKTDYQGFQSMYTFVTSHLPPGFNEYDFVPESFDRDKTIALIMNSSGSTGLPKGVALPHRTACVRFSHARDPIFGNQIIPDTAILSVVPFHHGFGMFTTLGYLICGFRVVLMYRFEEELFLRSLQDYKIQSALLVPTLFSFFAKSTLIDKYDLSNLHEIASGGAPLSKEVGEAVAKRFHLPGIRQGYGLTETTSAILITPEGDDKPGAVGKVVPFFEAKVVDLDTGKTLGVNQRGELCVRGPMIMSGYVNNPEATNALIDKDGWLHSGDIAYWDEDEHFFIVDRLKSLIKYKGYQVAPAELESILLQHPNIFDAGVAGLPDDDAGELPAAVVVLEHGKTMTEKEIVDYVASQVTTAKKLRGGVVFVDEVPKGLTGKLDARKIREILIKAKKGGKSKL
Assay [9] is described as follows: non-specific cell cytotoxicity, dose response, cytotoxicity control for PAX8 inhibitor project, plate reader, dry powder samples (AID 743021). Type of assay: functional, cell-based.
A short description of assay [10]: Luminescence Cell-Based Dose Confirmation HTS to Identify Inhibitors of Platelet Dense Granule Release. [Related pubchem assays: 1663 (Primary HTS), 1678 (Summary of Project)]. Type of assay: functional.
The target in assay [11] is Cyclin-dependent kinase 5/CDK5 activator 1 (Homo sapiens, UniProt Q00535). Put plainly: CDK5/p35 kinase inhibitors, dose response, biochemical, cherry-picked samples, set 2 (AID 504545).
Sequence of Cyclin-dependent kinase 5/CDK5 activator 1 (Q00535 whole entry): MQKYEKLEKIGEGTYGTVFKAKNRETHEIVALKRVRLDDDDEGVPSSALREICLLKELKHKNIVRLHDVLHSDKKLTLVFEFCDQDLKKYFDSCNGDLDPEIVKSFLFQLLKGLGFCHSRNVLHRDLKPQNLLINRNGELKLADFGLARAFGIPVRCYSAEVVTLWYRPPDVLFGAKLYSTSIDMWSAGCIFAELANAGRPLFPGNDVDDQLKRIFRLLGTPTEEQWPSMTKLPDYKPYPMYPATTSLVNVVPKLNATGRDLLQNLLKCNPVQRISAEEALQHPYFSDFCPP
Sequence of Cyclin-dependent kinase 5/CDK5 activator 1 (Q15078 whole entry, further chain): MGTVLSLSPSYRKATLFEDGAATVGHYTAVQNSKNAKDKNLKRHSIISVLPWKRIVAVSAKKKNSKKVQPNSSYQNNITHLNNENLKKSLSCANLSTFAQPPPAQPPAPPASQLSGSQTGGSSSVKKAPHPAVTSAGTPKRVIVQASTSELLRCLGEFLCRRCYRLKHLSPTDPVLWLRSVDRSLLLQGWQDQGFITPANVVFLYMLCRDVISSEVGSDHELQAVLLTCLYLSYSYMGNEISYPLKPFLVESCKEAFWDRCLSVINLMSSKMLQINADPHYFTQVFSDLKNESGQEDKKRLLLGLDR
The target in assay [12] is T5, Luciferin 4-monooxygenase. Put plainly: firefly luciferase enzyme inhibitors, dose response, biochemical, dry powder samples, plate reader (AID 588451).
The target of the next assay is Paired box protein Pax-8 (Homo sapiens, UniProt Q06710). Kind of assay: inhibitors of PAX8-driven TPO luciferase reporter, dose response, RMG-I cells, cherry-pick (AID 687027).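 Also: luciferase reporter driven by Pax8 target thyroperoxidase promoter measured by SteadyGlo luminescence.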 Type of assay: functional, cell-based.
Sequence of Paired box protein Pax-8 (Q06710 whole entry): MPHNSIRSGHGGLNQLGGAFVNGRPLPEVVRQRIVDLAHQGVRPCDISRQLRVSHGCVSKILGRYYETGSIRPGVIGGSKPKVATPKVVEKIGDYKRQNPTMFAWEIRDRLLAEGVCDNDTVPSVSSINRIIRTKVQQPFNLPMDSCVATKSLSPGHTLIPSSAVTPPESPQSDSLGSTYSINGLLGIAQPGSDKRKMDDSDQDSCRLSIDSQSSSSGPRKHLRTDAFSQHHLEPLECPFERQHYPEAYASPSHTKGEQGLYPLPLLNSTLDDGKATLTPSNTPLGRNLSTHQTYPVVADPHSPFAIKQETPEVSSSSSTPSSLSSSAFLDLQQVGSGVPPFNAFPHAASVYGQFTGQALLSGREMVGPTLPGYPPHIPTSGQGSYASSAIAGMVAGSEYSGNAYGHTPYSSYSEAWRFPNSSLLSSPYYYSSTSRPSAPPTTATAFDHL

Sequence of ELAV-like protein 1 (Q15717 whole entry): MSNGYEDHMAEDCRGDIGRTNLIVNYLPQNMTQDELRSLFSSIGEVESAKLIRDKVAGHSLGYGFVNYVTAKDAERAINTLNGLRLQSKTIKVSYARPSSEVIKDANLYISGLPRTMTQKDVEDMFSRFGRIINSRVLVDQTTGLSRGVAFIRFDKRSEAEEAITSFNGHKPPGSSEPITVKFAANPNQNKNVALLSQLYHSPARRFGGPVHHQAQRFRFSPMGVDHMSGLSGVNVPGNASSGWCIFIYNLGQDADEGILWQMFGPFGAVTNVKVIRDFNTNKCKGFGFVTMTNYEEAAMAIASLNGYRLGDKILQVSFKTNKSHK

For the compound `COc1ccc(Oc2c(Cl)cnn(Cc3ccccc3OC)c2=O)cc1`, the IC50 in [1] is 6.63 µM (active).
With `COc1cccc2c1C(=O)c1c(O)c3c(c(O)c1C2=O)CC(O)(C(C)=NO)CC3OC1CC(N)C(O)C(C)O1` (configuration not stated), the values for the half-inhibitory concentration (IC50) on ELAV-like protein 1 and at Nonstructural protein 1 were 21.7 µM (active) and 32 µM (active), respectively. Further, the AC50 in assay [2] was 16.9 µM (active); on Protein S100-A4, 0.406 µM (active).
As to `Cc1ccc2nc(NC(=O)c3cccc(-n4cnnn4)c3)sc2c1`, the IC50 (in assay [3]; in assay [4]; in assay [5]; on Caspase-3) was > 99 µM (inactive) in each case.
For the compound `Cc1ccc(C(=O)O/N=C(\N)c2ccccn2)cc1`, the half-maximal activity concentration (AC50) with H4 [6] is 0.731 µM (active); in the assay on H4 [7], 0.244 µM (active); in assay [9], 29.9 µM (active); in [11] it was 39 µM (active); in assay [12], 0.06 µM (active); at Paired box protein Pax-8 it was 15.5 µM (active). For the same compound, the half-maximal effective concentration (EC50) in assay [8] was 0.994 µM (active); in assay [10], 1.6 µM (active).

In general, IC50 refers to the concentration that gives 50% inhibition. In general, AC50 refers to the midpoint of the concentration-response curve, whichever way the signal moves. Usually EC50 stands for the concentration giving half of the maximal effect.
